Data from article PMC8398472, “Anticancer Diiron Vinyliminium Complexes: A Structure–Activity Relationship Study” (Pharmaceutics, 2021).
“And” between values parts separate entries of the source, which are not always exact repeats. Equal entries are not always repeated. Where two headings read alike, the source gives them in different places.

Columns and labels:
[1] = system: human ovarian carcinoma cisplatin-sensitive A2780; assay: Cytotoxicity, WST-1 cell viability assay, A2780; format: cell-based; settings: for IC50: 72 h exposure; for Selectivity index (S.I.): ratio between IC50 for Balb/3T3 and IC50 for A2780
Method: (§1) In vitro cytotoxicity investigations were carried out by using human ovarian carcinoma cisplatin-sensitive A2780 (ECACC93112519), human ovarian carcinoma cisplatin-resistant A2780cisR (ECACC 93112517) and mouse embryo fibroblasts Balb/3T3 clone A31 (ATCC CCL-163) cell lines. A2780 and A2780cisR were purchased from the European Collection of Authenticated Cell Cultures (ECACC), and Balb/3T3 clone A31 cell line from the American Type Culture Collection (ATCC).
(§2) A2780 and A2780cisR cells were routinely cultured in RPMI 1640 (Merck) containing 2 mM of L-glutamine (Merck), 1% of penicillin/streptomycin solution (Merck—10 000 U mL^−1: 10 mg mL^−1), 10% of fetal bovine serum (Merck—FBS) and antimycotic (InvivoGen, USA), and Balb/3T3 clone A31 in Dulbecco’s modified Eagle medium (Merck—DMEM) supplemented with 4 mM of L-glutamine, 1% of penicillin/streptomycin solution, 10% of calf serum (Merck) and antimycotic. […] The cultures were maintained at 37 °C and in a 5% CO2-enriched atmosphere.
(§3) A2780, A2780cisR and Balb/3T3 clone A31 cells were seeded in 96-well tissue culture polystyrene plates at a concentration of 3 × 10^3, 6 × 10^3 and 1 × 10^3 cells per well, respectively. After overnight incubation, the cells were treated with different concentrations (0–100 µM) of the selected compounds for 72 h at 37 °C in a 5% atmosphere of CO2. Stock solutions of compounds were prepared in DMSO and sequentially diluted in medium (final DMSO concentration of 0.5%). […] At the end of the incubation time, cell viability was assessed by means of WST-1 tetrazolium salt reagent (Roche). Briefly, cells were incubated for 4 h with the tetrazolium salt reagent diluted 1:10, at 37 °C and 5% CO2. Measurements of formazan dye absorbance, which directly correlates with the number of viable cells, were carried out with a micro-plate reader (Biorad) at 450 nm, using 655 nm as reference wavelength. The 50% inhibitory concentration (IC50) refers to compound concentration at which 50% of cell death is observed with respect to the control. For each tested compound, assay was performed on triplicate. The concentration effect curves were generated by nonlinear regression curves (GraphPad Prism Software, 2021) and the data reported as mean ± standard deviation.

[2] = Stability in DMSO-d6/D2O or D2O solution at 37 °C for 72 h (1H NMR); format: physicochemical; settings: 72 h at 37 °C
Method: (§4) • (a) Solubility in D2O. A suspension of the selected diiron compound (3–5 mg) in a D2O solution (ca. 1 mL) containing Me2SO2 (3.36 × 10^−3 M) as internal standard was vigorously stirred at 21 °C for 1.5 h. The resulting saturated solution was filtered over celite, transferred into an NMR tube and then analyzed by ^1H NMR spectroscopy (delay time = 3 s; number of scans = 20). The concentration (solubility) was calculated by the relative integral (related to Cp and/or NMe signals) with respect to Me2SO2 (δ = 3.14 ppm). • (b) Stability in DMSO-d6/D2O solution. The selected diiron compound (ca. 4 mg) was added of 1 mL of D2O (3a,c) or DMSO-d6/D2O (2:1 v/v) mixture (2a,c, 3b, 4a–c, 5a–c, 6a–c, 7), containing Me2SO2 (3.36 × 10^−3 M). The resulting mixture was stirred for 30 min and then filtered over celite; the filtrated solution was transferred into an NMR tube. The sample was analyzed by ^1H NMR (time = 0) and then heated at 37 °C for 72 h. After cooling to room temperature, the solution was separated from a small amount of solid by filtration over celite, and the new ^1H NMR spectrum was recorded (delay time = 3 s; number of scans = 20). In every case, no newly formed organometallic species was detected. The amount of starting material in solution (% with respect to the initial spectrum) was calculated by the relative integral (vs. Cp and/or NMe signals) with respect to Me2SO2 as internal standard.

[3] = Solubility in D2O by 1H NMR (Me2SO2 internal standard); format: physicochemical; settings: for Solubility: 21 °C
Method: as §4

[4] = Octanol–water partition coefficient (shake-flask, UV–Vis); format: physicochemical; settings: 21 °C
Method: • (c) Octanol–water partition coefficients (Log Pow). Partition coefficients (Pow; IUPAC: KD partition constant), defined as Pow = corg/caq, where corg and caq are molar concentrations of the selected compound in the organic and aqueous phase, respectively, were determined by the shake-flask method and UV–Vis measurements. Deionized water and 1-octanol were vigorously stirred for 24 h to enable saturation of both phases, then separated by centrifugation. A stock solution of the selected diiron compound (ca. 2 mg; 2a–c, 3b, 4a–c, 5a, 5c, 6b,c, 7) was prepared by first adding acetone (50 μL, to help solubilization), followed by water-saturated octanol (2.5 mL). The solution was diluted with water-saturated octanol (ca. 1:3 v/v ratio, cFe2 ≈ 10^−4 M, so that 1.5 ≤ A ≤ 2.0 at λmax) and the UV–Vis spectrum was recorded (A^0org). An aliquot of the solution (Vorg = 1.2 mL) was transferred into a test tube and octanol-saturated water (Vorg = Vaq = 1.2 mL) was added. The mixture was vigorously stirred for 15 min at 21 °C and then centrifuged (5000 rpm, 10 min). The UV–Vis spectrum of the organic phase was recorded (A^forg) and the partition coefficient was calculated as Pow = A^forg/(A^0org − A^forg), where A^0org and A^forg are the absorbance in the organic phase before and after partition with the aqueous phase, respectively. An inverse procedure was followed for 3a, 3c, 5b and 6a, starting from a solution of the compound in octanol-saturated water. The partition coefficient was calculated as Pow = (A^0aq − A^faq)/A^faq where A^0aq and A^faq are the absorbance in the aqueous phase before and after partition with the organic phase, respectively. The wavelength of the maximum absorption of each compound (ca. 300 nm) was used for UV–Vis quantitation. The procedure was repeated three times for each sample (from the same stock solution); results are given as mean ± standard deviation.

[5] = system: mouse embryo fibroblasts Balb/3T3 clone A31; assay: Cytotoxicity, WST-1 cell viability assay, Balb/3T3 clone A31; format: cell-based; settings: 72 h exposure
Method: as §1, §2, §3

[6] = system: human ovarian carcinoma cisplatin-resistant A2780cisR; assay: Cytotoxicity, WST-1 cell viability assay, A2780cisR; format: cell-based; settings: 72 h exposure
Method: as §1, §2, §3

[7] = cited from earlier work; for Log Pow: previously determined
[8] = system: human ovarian carcinoma cisplatin-sensitive A2780; set-up: method as in PMID 31441186; settings: previously determined on the same cell line; cited from earlier work

Compound	Stability % (residual % of starting material) ([2]; DMSO-d6/D2O (2:1 v/v)) [%]	Solubility [3]	Log Pow [4]	IC50 [1]	Selectivity index (S.I.) [1]	IC50 [5] [µM]	further results
N.N.[Cl][Pt][Cl] [cisplatin, reference compound]				0.4 ± 0.07 µM		0.8 ± 0.2	IC50 [6]: 26 ± 3 µM
O=C1C=CC(=O)c2ccccc21 [Naphthoquinone]							Log P ([7]; literature value): 1.71
[Fe2Cp2(CO)(μ-CO){μ-η^1:η^3-C^3(Ph)C^2HC^1N(CH2Ph)2}]CF3SO3 [Compound 2b]			1.4 and 1.4 ± 0.2				Solubility in D2O (in words) [3]: almost insoluble in D2O
[Fe2Cp2(CO)(μ-CO){μ-η^1:η^3-C^3(Me)C^2HC^1NMe2}]CF3SO3							IC50 [8]: 35 ± 3 µM; Log Pow [7]: −0.3
[Fe2Cp2(CO)(μ-CO){μ-η^1:η^3-C^3(Me)C^2HC^1N(CH2Ph)2}]CF3SO3 [Compound 2a]	81		0.45 ± 0.04	2 ± 0.7 µM	7	14 ± 4	
CC1=[C](C)[Fe+]2(=[C]=O)[C](=O)[Fe+]2[C]1=[N+](C)c1c(C)cccc1C.O=S(=O)([O-])C(F)(F)F.c1cc[cH-]c1.c1cc[cH-]c1 (stereo not shown) [[Fe2Cp2(CO)(μ-CO){μ-η^1:η^3-C^3(Me)C^2(Me)C^1NMe(Xyl)}]CF3SO3]							IC50 [8]: 0.5 ± 0.06 µM; Log Pow [7]: 0.0
Cc1cccc(C)c1[N+](C)=[C]1C=[C](c2ccccc2)[Fe+]2(=[C]=O)[C](=O)[Fe+]12.O=S(=O)([O-])C(F)(F)F.c1cc[cH-]c1.c1cc[cH-]c1 (stereo not shown) [[Fe2Cp2(CO)(μ-CO){μ-η^1:η^3-C^3(Ph)C^2HC^1NMe(Xyl)}]CF3SO3]							IC50 [8]: 0.9 ± 0.06 µM; Log Pow [7]: 0.4

Now from value to compound, other results behind:

Stability % (residual % of starting material) ([2]; DMSO-d6/D2O (2:1 v/v)) [%]	Solubility [3]	Log Pow [4]	Compound	IC50 [1]	Selectivity index (S.I.) [1]	IC50 [5] [µM]	further results
65	1.52 × 10^−3 mol·L^−1 and 1.02 g·L^−1	0.41 ± 0.02	[Fe2Cp2(CO)(μ-CO){μ-η^1:η^3-C^3(Ph)C^2HC^1NMe(Cy)}]CF3SO3 [Compound 4b]	2.6 ± 0.3 µM	13	35 ± 3	
84	1.10 × 10^−3 mol·L^−1 and 0.73 g·L^−1	0.13 ± 0.01	[Fe2Cp2(CO)(μ-CO){μ-η^1:η^3-C^3(Et)C^2(Et)C^1NMe(CH2Ph)}]CF3SO3 [Compound 5c]	3.75 ± 0.14 µM	24	90 ± 8	
	6.89 × 10^−3 mol·L^−1 and 4.02 g·L^−1	−0.77 ± 0.01	[Fe2Cp2(CO)(μ-CO){μ-η^1:η^3-C^3(Me)C^2(Me)C^1NMe(CH2CH = CH2)}]CF3SO3 [Compound 3c]	~17 µM and 17 µM	>5.9	> 100	Stability % (residual % of starting material) ([2]; neat D2O): 85 ^a %
	6.43 × 10^−3 mol·L^−1 and 3.66 g·L^−1	−0.75 ± 0.01	[Fe2Cp2(CO)(μ-CO){μ-η^1:η^3-C^3(Me)C^2HC^1NMe(CH2CH = CH2)}]CF3SO3 [Compound 3a]	17.7 ± 0.8 µM	>5.6	> 100	Stability % (residual % of starting material) ([2]; neat D2O): 93 ^a %
85		−0.26 ± 0.01	[Fe2Cp2(CO)(μ-CO){μ-η^1:η^3-C^3(Me)C^2HC^1NMe(CH2Ph)}]CF3SO3 [Compound 5a]	7.1 ± 0.4 µM	>14	> 100	
94	2.22 × 10^−3 mol·L^−1 and 1.41 g·L^−1	−0.46 ± 0.01	[Fe2Cp2(CO)(μ-CO){μ-η^1:η^3-C^3(Me)C^2HC^1NMe(4-C6H4OMe)}]CF3SO3 [Compound 6a]	3.5 ± 0.5 µM	27	94 ± 4	
